Assay [1] concerns Botrytis cinerea. Kind of assay: Long lasting control of Botrytis cinerea on leaves of green pepper (green house). As to conditions: 125 ppm; green pepper sprayed 7 days before inoculation; assessed after 5 days; untreated plants 90% infected. In kind it is in vivo. How it is done: (§1) The compound was dissolved in a mixture of acetone and/or dimethylsulfoxide and the wetting agent/emulsifier Wettol, which is based on ethoxylated alkylphenoles, in a ratio (volume) solvent-emulsifier of 99 to 1 to give a total volume of 5 ml. Subsequently, water was added to total volume of 100 ml.
(§2) This stock solution was then diluted with the described solvent-emulsifier-water mixture to the final concentration given in the table below.
Young seedlings of green pepper were grown in pots to the 4 to 5 leaf stage. These plants were sprayed to run-off with previously described spray solution, containing the concentration of active ingredient or mixture mentioned in the table below. The plants were then cultivated in the greenhouse for 7 days and then inoculated with an aqueous biomalt or DOB solution containing the spore suspension of Botrytis cinerea. Then the plants were immediately transferred to a humid chamber. After 5 days at 22 to 24 °C and a saturated relative humidity, the extent of fungal attack on the leaves was visually assessed as % diseased leaf area.

For the next assay, the system named is Sclerotinia sclerotiorum. Kind of assay: Preventative fungicidal control of white mold on cabbage caused by Sclerotinia sclerotiorum (green house). It is filed as in vivo. The note with it: 125 ppm; cabbage sprayed 1 day before inoculation; assessed after 8 days; untreated plants 80% infected. Here is the method: as §1, §2
Cabagges were grown in pots to the 13 to 14 leaf stage. These plants were sprayed to run-off with previously described spray solution, containing the concentration of active ingredient or their mixture mentioned in the table below. The plants could air-dry. The next day the cabbage leaves were inoculated with 50 μl of a mixture of ground petals, methylcellulose, water, and yeast-bactopeptone media (includes spores of Sclerotinia sclerotiorum). After 8 days at 21° C. and a relative humidity of 60% the extent of fungal attack on the leaves were visually assessed as % diseased leaf area.

Assay [2] relates to Botrytis cinerea. Kind of assay: Activity against the grey mold Botrytis cinerea in the microtiterplate test. In kind it is cell-based. As to conditions: 31 ppm; microtiter plate, 405 nm, 7 days after inoculation.
The subject of a further assay is Cercospora sojina. The experiment in a line: Activity against Cercospora sojina in the microtiterplate test. It is filed as cell-based. The note with it: 31 ppm; microtiter plate.
The test system of assay [3] is Corynespora cassiicola G413A mutant. Kind of assay: Activity against Corynespora cassiicola G413A mutant in the microtiterplate test. The note with it: 31 ppm; microtiter plate; G413A mutant isolates. In kind it is cell-based.
The next assay deals with Corynespora zeae. The experiment in a line: Activity against Corynespora zeae in the microtiterplate test. In kind it is cell-based. The note with it: 31 ppm; microtiter plate.

With `CN1CC2(CC2)N=C(c2cnc3c(F)cccc3c2)c2cccc(F)c21` [Ex-17], the figures for the “growth of the pathogen (% diseased leaf area)” value in the assay with Botrytis cinerea [1] and in the assay on Sclerotinia sclerotiorum were “up to 15%” and “up to 8%”, respectively. In addition, the “growth of the pathogen (relative to compound-free control = 100%)” value is reported as 4% in the assay on Botrytis cinerea [2], 6% with Cercospora sojina and 11% in assay [3].

Take `CC1(C)C(=O)N=C(c2cnc3c(F)cccc3c2)c2ccccc2N1C#N` [Ex-12]: the “growth of the pathogen (relative to compound-free control = 100%)” value in the assay with Botrytis cinerea [2] came out at 4%.

`CN1c2ccccc2C(c2cnc3c(F)cccc3c2)=NC(=O)C1(C)C` [Ex-10]: the entries for the “growth of the pathogen (relative to compound-free control = 100%)” value in the assay on Botrytis cinerea [2] and in the assay on Corynespora zeae were 4% and 8%, respectively.

The values above are taken from patent US20260182574A1 (priority 2022, published 2026).
